Tests used:
[1] = system: T cells (CD3^+CD56^-); experiment: T cell numbers, viability and apoptosis in PBMCs (flow cytometry, DiOC6(3)/PI staining); format: cell-based, human
Procedure: To evaluate absolute cell numbers, an equal volume of PKH26 reference microbeads (Sigma-Aldrich) was added to each sample after staining for immune subset identification. Microbeads (5x10^3) were acquired by flow cytometry and absolute numbers of each immune population within the sample were calculated. Normalized percentage values were calculated considering the control (DMSO)-treated cells as 100%.
(§1) Cell viability and apoptosis were evaluated by double-staining with the mitochondrial inner transmembrane potential (ΔΨm)-sensitive dye DiOC6(3) (3,3'-dihexyloxacarbocyanine iodide; Sigma-Aldrich) and the exclusion dye propidium iodide (PI; Immunostep), allowing identification of apoptotic [DiOC6(3)^low PI^-] and dead [PI^+] cells as per Proc. Natl. Acad. Sci. U.S.A. (2014) 111(8):3020-3025 and Methods Mol. Biol. (2016) 1419:1-16. Briefly, PBMCs were resuspended in culture medium containing 20 nM DiOC6(3) and incubated for 30 minutes at 37 °C. Then, PI (1 µg/mL) was added and cells were further incubated for 10 minutes at room temperature (RT). Cells were analyzed by flow cytometry considering DiOC6(3)^+PI^- cells as viable. In some experiments, apoptosis was evaluated by staining with Annexin V/PI. Thus, PBMCs were incubated in Annexin V binding buffer containing 5 µg/mL Annexin V-FITC (Biolegend) for 15 minutes at RT and PI (1 µg/mL) was subsequently added. Data were normalized to the untreated control as a percentage. Only samples with at least 60% of viable cells (DiOC6(3)^+; Annexin V^-) in the control (DMSO) condition were employed in this study.
The effect of EC-7072 toward healthy immune subsets, T lymphocytes and natural killer (NK) cells, which are chronically exposed to leukemia cells in the peripheral blood of patients with CLL was assessed by: • (i) incubating PBMCs isolated from patients with CLL (n = 10) following treatment with increasing concentrations of EC-7072 (0 - 400 nM) for 24 hours. Numbers of T cells (CD3^+CD56^-) (Figure 2A) and NK cells (CD3^-CD56^+) (Figure 2B) were evaluated by flow cytometry and normalized to their respective control (DMSO) condition for each individual patient to obtain percentage of relative number of T cells and NK cells, respectively; • (ii) incubating PBMCs isolated from patients with CLL (n = 6 - 10) following treatment with increasing concentrations of EC-7072 (0 - 400 nM) for 24 hours. Viability of immune subsets (leukemia cells, T cells and NK cells) was determined by cytofluorometric assessment of DiOC6(3)/PI staining and normalized to their respective control (DMSO) condition for each individual patient to obtain percentage of viable [DiOC6(3)^+] cells (Figures 2C and 2D); • (iii) incubating PBMCs isolated from patients with CLL (n = 11) following treatment with DMSO or EC-7072 (200 nM) for 24 hours. Numbers of CD4^+ cells (Figure 2E) and CD8^+ T cells (Figure 2F) were evaluated by flow cytometry and normalized to their respective control (DMSO) condition for each individual experiment; • (iv) incubating PBMCs isolated from healthy donors (n = 15) following treatment with EC-7072 (200 nM) for 24 hours. […]

[2] = system: OP9 cells; experiment: Viability of OP9 stromal cells exposed to EC-7072; format: cell-based; conditions: exposure to EC-7072 for 24 hours
[3] = system: primary CLL cells; experiment: Leukemia cell viability and apoptosis by DiOC6(3)/PI staining and flow cytometry; format: cell-based, human
Procedure: as §1
The in vitro cytotoxic activity of EC-7072 against primary CLL cells was assessed by: • (i) incubating PBMCs isolated from patients with CLL (n = 13) following treatment with increasing concentrations of EC-7072 (0 - 400 nM) for 24 hours. Numbers of leukemia cells were evaluated by flow cytometry and normalized to their respective control (DMSO) condition for each individual patient to obtain percentage of leukemia cells (Figure 1A); • (ii) incubating PBMCs from patients with CLL (n = 10) with or without EC-7072 (100-400 nM) for 24 hours. Viability of leukemia cells was determined by cytofluorometric assessment of DiOC6(3)/PI staining and normalized to their respective control condition to obtain percentage viability (Figure 1B); • (iii) incubating PBMCs from patients with CLL (n = 10) with increasing concentrations of EC-7072 (0 - 400 nM) for 24 hours. Apoptosis of leukemia cells was determined by DiOC6(3)/PI staining and flow cytometry to obtain the mean percentages of apoptotic [DiOC6(3)^low PI^-] and dead [PI^+] cells (Figure 1C); • (iv) incubating PBMCs from patients with CLL (n = 10) with or without EC-7072 (200 nM) for 12 to 72 hours. Viability of leukemia cells was determined by DiOC6(3)/PI staining and normalized to their respective control condition to obtain percentage viability (Figure 1D); • (v) incubating PBMCs from patients with CLL (n = 24) with MTA (200 nM) or EC-7072 (200 nM) for 24 hours. Leukemia cell death was determined by DiOC6(3)/PI staining and flow cytometry to obtain the mean percentages of apoptotic [DiOC6(3)^low PI^-] and dead [PI^+] cells (Figure 1E); • (vi) incubating PBMCs from patients with CLL (n = 63) or healthy donors (n = 20) with or without EC-7072 (200 nM) for 24 hours. Viability of leukemia cells and healthy B cells was evaluated by DiOC6(3)/PI staining and normalized to their respective control condition to obtain percentage viability (Figure 1F); • (vii) incubating PBMCs from patients with CLL (n = 62) following treatment with EC-7072 (200 nM) for 24 hours and obtaining a cytogenetic profile for each patient. Viability of leukemia cells was evaluated by DiOC6(3)/PI staining and normalized to their respective control (DMSO) condition for each individual patient to obtain the percentage of viable [DiOC6(3)^+] cells (Figure 1G); • (viii) incubating PBMCs from patients with CLL (n = 59) following treatment with EC-7072 (200 nM) for 24 hours and determining mutational status of IgHV for each patient. Viability of leukemia cells was evaluated by DiOC6(3)/PI staining and normalized to their respective control (DMSO) condition for each individual patient to obtain the percentage of viable [DiOC6(3)^+] cells (Figure 1H). […]

[4] = system: MEC-1 cells; experiment: Immunoblot of phosphorylated and total STAT3 in MEC-1 cells; format: cell-based; conditions: 200 nM, 0-, 3-, 8- and 12-hour time points; reduction of p-STAT3

`CO[C@@H]([C@@H]1Cc2cc3cc(O[C@H]4C[C@@H](O[C@H]5C[C@@H](O)[C@H](O)[C@@H](C)O5)[C@H](O)[C@@H](C)O4)c(C)c(O)c3c(O)c2C(=O)[C@H]1O[C@H]1C[C@@H](O[C@H]2C[C@@H](O[C@H]3C[C@](C)(O)[C@H](O)[C@@H](C)O3)[C@@H](O)[C@@H](C)O2)[C@H](O)[C@@H](C)O1)[C@@H](O)C(C)=O` [EC-7072, mithramycin SK] was tested, and the “T cell numbers and viability” value ([1]; 0 - 400 nM, 24 hours, PBMCs from patients with CLL) was “negligible effects”, the “ratio of apoptosis to cell death in T cells” value ([1]; 200 nM, 24 hours, PBMCs from healthy donors (n = 4), Figure 2Q) was “comparable to that induced by EC-7073” and the “viability of T cells, comparison of mithralogs” value ([1]; 200 nM, 24 hours, PBMCs from healthy donors (n = 10), Figure 2N) was “not exhibit toxicity”. The “cell numbers and viability of T lymphocytes” value ([1]; 200 nM, 24 hours, PBMCs from healthy donors (n = 15), compared with PBMCs from patients with CLL) was “comparable effects”, the “toxicity against T cells compared with fludarabine” value ([1]; EC-7072 200 nM 24 hours vs fludarabine 10 µM 24 hours, PBMCs from patients with CLL (n = 6 - 8), Figure 4F) was “significantly less toxic than fludarabine” and the “viability of OP9 cells” value [2] was “did not affect their viability”. For the same compound, the “cell death at 6 hours” value ([3]; 200 nM, 6 hours, PBMCs from patients with CLL (n = 8), Figure 6C) was “not triggering detectable cell death”, the “CLL cell death at 8 hours” value ([3]; 200 nM, 8 hours, n = 8, Figure 7K) was “does not result in noticeable CLL cell death” and the “ratio of apoptosis in CLL cells relative to CLL cell death” value ([3]; 200 nM, 24 hours, PBMCs from patients with CLL (n = 6), exception: EC-14041, Figure 2P) was “higher ratio of apoptosis in CLL cells relative to CLL cell death than other mithralogs”. For the same compound, the “antileukemic activity (apoptotic [DiOC6(3)^low PI^-] and dead [PI^+] cells)” value ([3]; 200 nM, 24 hours, PBMCs from patients with CLL (n = 24), compared with MTA 200 nM, Figure 1E) was “comparable to that of MTA”, the “antileukemic activity on isolated leukemia cells versus PBMCs (apoptotic and dead cells)” value ([3]; 200 nM, 24 hours, isolated leukemia cells from patients with CLL (n = 24)) was “mimicked” and the “viability of leukemia cells by mutational status of IgHV” value ([3]; 200 nM, 24 hours, n = 59, Figure 1H) was “did not significantly affect the sensitivity”. The “viability of leukemia cells by cytogenetic profile” value ([3]; 200 nM, 24 hours, n = 62, patients with cytogenetic aberrations incl. del(17p) or del(11q), Figure 1G) was “no differences in the sensitivity”, the “viability of leukemia cells” value ([3]; 100 - 400 nM for 24 hours, 200 nM for 12 to 72 hours, PBMCs from patients with CLL (n = 10), dose- and time-dependent, Figures 1B-1D) was “significantly decreased” and the “leukemia cell survival upon BCR stimulation with anti-IgM antibodies” value ([3]; EC-7072 200 nM in combination with α-IgM (10 µg/mL), 24 hours, n = 15) was “significantly rescued leukemia cell survival”. The “leukemia cell death in the presence of microenvironment-derived soluble factors” value ([3]; EC-7072 200 nM with CD40L (100 ng/mL), BAFF (50 ng/mL), TNF-α (40 ng/mL), IL-6 (40 ng/mL) or IL-4 (40 ng/mL), 24 hours, n = 7) was “none of the soluble factors tested significantly affected the leukemia cell death”, the “leukemia cell viability in co-culture with OP9 stromal cells” value ([3]; co-culture with OP9 cells 72 hours, EC-7072 200 nM for the last 24 hours, n = 7) was “did not enhance leukemia cell viability” and the “percentage viability of leukemia cells, comparison of mithralogs” value ([3]; each at 200 nM, 24 hours, PBMCs from patients with CLL (n = 10), Figure 2M) was “second only to the mithralog EC-7073”. The “CLL cell viability compared with idelalisib or fludarabine” value ([3]; range of doses, EC-7072 and fludarabine 24 hours, idelalisib 48 hours, n = 4 - 6, Figure 4A) was “reduced CLL cell viability to a greater extent than idelalisib or fludarabine” and the “levels of p-STAT3 in MEC-1” value [4] was “further confirmed”.

Reference: EP3797781A1, “USE OF EC-7072 AND SYNERGIC COMPOSITIONS THEREOF IN TREATMENT OF CHRONIC LYMPHOCYTIC LEUKEMIA” (priority 2019, dated 2021)
